Source: the supplement of paper PMC11451515

Columns and labels:
Details in all cases: 48 h
[1] = tested on: NOMO1; test: cell viability relative to DMSO control; higher = less cytotoxic
Summary of the method: (§1)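 Library compounds in DMSO were pin-dosed in an 11-point threefold series (47 μM to 0.79 nM) onto leukemia cells in 1536-well plates (5 μl). Plates held 500 cells/well of NOMO1 or SEM or 1000 cells/well of P12-Ichikawa, each adapted for at least four passages in each medium. Luminescence was read with CellTiter-Glo One after 48 h at 37°C. Viability means the per-plate percentage relative to DMSO wells, using cell-free wells as background.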

[2] = tested on: P12-Ichikawa; test: as above
Summary of the method: as §1

[3] = tested on: SEM cells; test: as above
Summary of the method: as §1

[4] = tested on: NOMO1; test: AUC of viability dose-response curve (% viability x log10 dose units); higher = less sensitive
Summary of the method: (§2)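 Area under the curve was integrated by trapezoidal rule from a log-logistic fit of normalised viability, with curves exceeding full viability scaled and quality-control failures removed. The fit had four parameters over log10 doses. Viability came from CellTiter-Glo One luminescence, normalised per plate to DMSO and cell-free wells, after leukemia cells adapted to each medium (500 or 1000 cells/well, 1536-well plates) were exposed to library compounds in DMSO for 48 h at 37°C. The 11 threefold doses ran from 47 μM to 0.79 nM.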

[5] = tested on: P12-Ichikawa; test: as above
Summary of the method: as §2

[6] = tested on: SEM cells; test: as above
Summary of the method: as §2

CN(C)CCN(C)C(=O)c1ccc(NC(=O)Nc2ccc(-c3nc(N4CCOCC4)c4ccn(CC(F)(F)F)c4n3)cc2)cc1
cell viability [%]
Details | [1] | [2] | [3]
HPLM + 10% dialyzed FBS, 0.000781 µM | – | 114 | 104
HPLM + 10% dialyzed FBS, 0.00234 µM | – | 120 | 100
HPLM + 10% dialyzed FBS, 0.00702 µM | – | 112 | 120
HPLM + 10% dialyzed FBS, 0.0211 µM | – | 122 | 111
HPLM + 10% dialyzed FBS, 0.0632 µM | – | 106 | 88
HPLM + 10% dialyzed FBS, 0.19 µM | – | 100 | 63.9
HPLM + 10% dialyzed FBS, 0.569 µM | – | 101 | 65.8
HPLM + 10% dialyzed FBS, 1.71 µM | – | 89.7 | 48.6
HPLM + 10% dialyzed FBS, 5.12 µM | – | 90.8 | 52.7
HPLM + 10% dialyzed FBS, 15.4 µM | – | 90.8 | 50.2
HPLM + 10% dialyzed FBS, 46.1 µM | – | 83.2 | 54.3
RPMI 5 mM glucose + 10% FBS, 0.000781 µM | 101 | 115 | 106
RPMI 5 mM glucose + 10% FBS, 0.00234 µM | 115 | 114 | 81.7
RPMI 5 mM glucose + 10% FBS, 0.00702 µM | 117 | 121 | 96.2
RPMI 5 mM glucose + 10% FBS, 0.0211 µM | 130 | 118 | 117
RPMI 5 mM glucose + 10% FBS, 0.0632 µM | 109 | 85 | 73.7
RPMI 5 mM glucose + 10% FBS, 0.19 µM | 91.2 | 77.9 | 48
RPMI 5 mM glucose + 10% FBS, 0.569 µM | 74.5 | 77.7 | 49.2
RPMI 5 mM glucose + 10% FBS, 1.71 µM | 70 | 67.6 | 45.9
RPMI 5 mM glucose + 10% FBS, 5.12 µM | 75.7 | 64.9 | 45.8
RPMI 5 mM glucose + 10% FBS, 15.4 µM | 78.7 | 65.4 | 43.6
RPMI 5 mM glucose + 10% FBS, 46.1 µM | 81.9 | 69.9 | 48.7
RPMI 5 mM glucose + 10% dialyzed FBS, 0.000781 µM | 116 | – | 112
RPMI 5 mM glucose + 10% dialyzed FBS, 0.00234 µM | 113 | – | 110
RPMI 5 mM glucose + 10% dialyzed FBS, 0.00702 µM | 113 | – | 112
RPMI 5 mM glucose + 10% dialyzed FBS, 0.0211 µM | 121 | – | 113
RPMI 5 mM glucose + 10% dialyzed FBS, 0.0632 µM | 92.6 | – | 87.6
RPMI 5 mM glucose + 10% dialyzed FBS, 0.19 µM | 78.5 | – | 75.5
RPMI 5 mM glucose + 10% dialyzed FBS, 0.569 µM | 81.7 | – | 63.2
RPMI 5 mM glucose + 10% dialyzed FBS, 1.71 µM | 67.4 | – | 60.1
RPMI 5 mM glucose + 10% dialyzed FBS, 5.12 µM | 72.5 | – | 56.6
RPMI 5 mM glucose + 10% dialyzed FBS, 15.4 µM | 68.1 | – | 51
RPMI 5 mM glucose + 10% dialyzed FBS, 46.1 µM | 69.5 | – | 53.3

AUC of viability dose-response curve
Details | [4] | [5] | [6]
HPLM + 10% dialyzed FBS | 327 | 417 | 339
RPMI 5 mM glucose + 10% FBS | 393 | 359 | 325
RPMI 5 mM glucose + 10% dialyzed FBS | 371 | 360 | 341

CC(C)(O)Cn1c(NC(=O)c2ccc(-c3cn[nH]c3)s2)nc2cc(CN3CCOCC3)ccc21
AUC of viability dose-response curve
Details | [4] | [5] | [6]
HPLM + 10% dialyzed FBS | 352 | 365 | 226
RPMI 5 mM glucose + 10% FBS | 369 | 364 | 206
RPMI 5 mM glucose + 10% dialyzed FBS | 368 | 364 | 207
